Results from patent US11844802B2, “Compounds and compositions for ossification and methods related thereto” (Emory University, priority 2010, dated 2023).

B1: BMP-2: bone morphogenetic protein, growth factor known to induce bone and cartilage formation and play a role in osteoblast differentiation (protein, listed as Homo sapiens)
chain: MVAGTRCLLALLLPQVLLGGAAGLVPELGRRKFAAASSGRPSSQPSDEVLSEFELRLLSMFGLKQRPTPSRDAVVPPYMLDLYRRHSGQPGSPAPDHRLERAASRANTVRSFHHEESLEELPETSGKTTRRFFFNLSSIPTEEFITSAELQVFREQMQDALGNNSSFHHRINIYEIIKPATANSKFPVTRLLDTRLVNQNASRWESFDVTPAVMRWTAQGHANHGFVVEVAHLEEKQGVSKRHVRISRSLHQDEHSWSQIRPLLVTFGHDGKGHPLHKREKRQAKHKQRKRLKSSCKRHPLYVDFSDVGWNDWIVAPPGYHAFYCHGECPFPLADHLNSTNHAIVQTLVNSVNSKIPKACCVPTELSAISMLYLDENEKVVLKNYQDMVVEGCGCR

Experiments:
rat model = experiment: in vivo bone-formation in rat model (ectopic bone induction); conditions: without any BMP-2
C2C12 myoblasts = experiment: BMP-2 responsiveness / osteoblastic transdifferentiation of C2C12 myoblasts, multiple assays; format: cell-based, Mouse
Text: Derivatives with desired attributes can be evaluated using the procedure described below.
Compounds were selected by virtual screening for development based on computational modeling, docking, and in silico screening. […] (See Sangadala et al. (2007) Proteins 68: 690-701 and FIG. 2). The BMP-potentiating activities of compounds may be evaluated by monitoring several markers of the osteoblastic phenotype corresponding to various time points during phenotype differentiation of C2C12 cells towards terminally differentiated osteoblasts.

C2C12 cells = experiment: cell lifting / cell number observation in C2C12 reporter assay; format: cell-based, Mouse; conditions: reduced number of cells at end of experiment
Procedure: Compounds were tested experimentally for their ability to potentiate BMP-2 activity in our luciferase reporter assay using C2C12 cells (FIGS. 5A and 5B).

[1] = tested on: BMP-specific Smad1-driven 9×GCCG reporter; experiment: BMP-2 induced Smad1-driven dual-luciferase reporter assay in C2C12 cells; format: cell-based, Mouse; conditions: BMP-2 1 ng/ml
Text: A cell-based method was optimized to monitor BMP-2 induced responses. […] One can monitor transcriptional activity driven by activated Smad1 in C2C12 cells in a cell-based assay utilizing a Smad1-specific luciferase reporter plasmid containing a multimerized -GCCG- motif (9 copies). […] A concentration range of BMP-2 required for activating the reporter assay was established.
A BMP-specific Smad1-driven 9×GCCG (a consensus binding sequence for Smad1) reporter plasmid was used. The C2C12 cells were trypsinized and seeded in triplicate wells at 50,000 cells/well in 12-well plates on day 1. On day 2, the cells were cotransfected with the 9×GCCG-reporter construct and the renilla-luciferase control vector using SuperFect (Qiagen, Valencia, CA) for 24 hrs. […] On day 5, the luciferase activities were measured in 20 μl of cell-lysate using the dual-luciferase assay system (Promega, Madison, WI) with a luminometer (LumiCount™; Packard Bioscience, Meriden, CT) following the manufacturer's instructions. The luciferase activity was expressed as relative units of luciferase (RUL; a ratio of firefly luciferase to renilla luciferase activity). […]

[2] = tested on: alkaline phosphatase mRNA; experiment: BMP-2 induced alkaline phosphatase mRNA level, quantitative real-time RT-PCR in C2C12 cells; format: cell-based, Mouse; conditions: for increase in alkaline phosphatase mRNA by BMP-2 alone: compared to no treatment control
Procedure: (§1) Mouse C2C12 cells and Dulbecco's modified Eagle's medium (DMEM) were purchased from ATCC (Manassas, VA). The non-heat inactivated fetal bovine serum (FBS) was purchased from HyClone Laboratories, Inc. (Logan, UT). The C2C12 cells at passages 5 to 10 were subcultured in T-75 cm^2 flasks in DMEM supplemented with 10% FBS at 37° C. in 5% CO2 with humidification. When the flasks reached 80% confluence, the cells were trypsinized and seeded in triplicate at 200,000 cells/well in a 6-well plate for quantitative real-time RT-PCR and alkaline phosphatase (ALP) assays or at 50,000 cells/well in a 12-well plate for the dual-luciferase reporter assay.
(§2) The C2C12 cells were plated at a density of 200,000 cells/well in 6-well plates and grown overnight in DMEM containing 10% FBS. On day 2, the culture medium was replaced with DMEM containing 2% FBS and the cells were treated with various concentrations of Smurf1-interacting compound (diluted from 10 mg/ml stock solutions prepared in DMSO) for 24 hours. In control cultures, a DMSO solvent concentration of 0.01% (v/v) was applied. On day 3, medium was replaced with fresh DMEM containing 2% FBS and the cells were treated with BMP-2 for 24 hours.
(§3) Total RNA was harvested using the RNeasy Mini Kit according to the manufacturer's instructions (Qiagen, Valencia, CA). The harvested RNA was digested with RNase-free DNase I (Qiagen, Valencia, CA) to remove DNA contamination. The concentration of the isolated RNA was determined by measuring the absorbance at 260 nm wave length with a spectrophotometer (Model DU 640, Beckman Coulter, Inc. Brea, CA). The ratio of A260/A280 was between 1.6 and 1.8. Reverse transcription was carried out to synthesize cDNA in a 100 μl volume with 2 μg of total RNA, 10×RT buffer, 5.5 mM MgCl2, 2 mM dNTP mixture, 0.125 μM oligo d(T), 0.125 μM random primer, 40 Units of RNase inhibitor, and 125 Units of MultiScribe™ (Applied Biosystems, Foster City, CA) for 10 minutes at 25° C., 30 minutes at 48° C., and 5 minutes at 95° C.
Quantitative real-time RT-PCR was performed to determine the mRNA expression level of ALP and osteocalcin. The sequences of the primers were as follows: ALP (forward, 5′-TCAGGGCAATGAGGTCACATC-3′; (SEQ ID NO: 6), reverse, 5′-CAC AAT GCC CAC GGA CTT C-3′) (SEQ ID NO: 7), osteocalcin (forward, 5′-CGGCCCTGAGTCTGACAAAG-3′; (SEQ ID NO: 8) reverse, 5′-CTCGTCACAAGCAGGGTCAA-3′ (SEQ ID NO: 9)). Twenty-five microliters of reaction volume included 5 μl of cDNA, 0.5 μl of 10 μM of each primer and 12.5 μl of 2×SYBR green master mix (Applied Biosystems). […]

osteocalcin mRNA = experiment: BMP-2 induced osteocalcin mRNA level, quantitative real-time RT-PCR in C2C12 cells; format: cell-based, Mouse; conditions: for increase in osteocalcin mRNA by BMP-2 alone: compared to no treatment control
Procedure: as §1, §2, §3
Quantitative real-time RT-PCR was performed to determine the mRNA expression level of ALP and osteocalcin. The sequences of the primers were as follows: ALP (forward, 5′-TCAGGGCAATGAGGTCACATC-3′; (SEQ ID NO: 6), reverse, 5′-CAC AAT GCC CAC GGA CTT C-3′) (SEQ ID NO: 7), osteocalcin (forward, 5′-CGGCCCTGAGTCTGACAAAG-3′; (SEQ ID NO: 8) reverse, 5′-CTCGTCACAAGCAGGGTCAA-3′ (SEQ ID NO: 9)). Twenty-five microliters of reaction volume included 5 μl of cDNA, 0.5 μl of 10 μM of each primer and 12.5 μl of 2×SYBR green master mix (Applied Biosystems). Real-time PCR was performed with the following three-step protocol: step 1, 50° C. for 2 minutes; step 2, 95° C. for 10 minutes; step 3, 40 cycles of 95° C. for 15 seconds and 62° C. for 1 minute using the 7500 real-time PCR System (Applied Biosystems, Foster City, CA). To confirm the amplification specificity, the PCR products were subjected to a dissociation curve analysis. The threshold cycles (Ct) of each reaction were normalized to those obtained for 18S mRNA using the −ΔΔCt method (Applied Biosystems). All PCR reactions were performed in triplicate.
(§4) The EC50 values were calculated by determining the concentration by which 50% of maximum activity was reached using the sigmoidal fit equation. The 50% effective concentrations were determined with the standard curve analysis of SigmaPlot™ 8.02. […]

[3] = tested on: alkaline phosphatase activity; experiment: BMP-2 induced alkaline phosphatase (ALP) enzyme activity assay in C2C12 cells; format: cell-based, Mouse
Procedure: as §1
The C2C12 cells were plated at 200,000 cells/well in 6-well plates and grown overnight in DMEM containing 10% FBS. On day 2, the culture medium was replaced with DMEM containing 2% FBS and the cells were treated with various concentrations of the Smurf1-interacting compound for 24 hours. On day 3, the medium was replaced with fresh DMEM containing 2% FBS and the cells were treated with 50 ng/ml of BMP-2 with or without compound for 72 hours. The cells were washed with phosphate-buffered saline (PBS) and lysed by addition of lysis buffer (10 mM Tris-HCl pH 8.0, 1 mM MgCl2 and 0.5% Triton X-100). The cell lysates were centrifuged for 5 minutes at 13,000×g. The supernatant was removed and the aliquots were assayed for ALP activity and protein amount. The ALP activity was measured in triplicate using an ALP assay kit (Sigma-Aldrich, St. Louis, MO) in microtiter plates. The protein amount was determined with Bio-Rad™ protein assay reagent (Bio-Rad, Hercules, CA) using bovine serum albumin (BSA) as a standard. The ALP activity (nmoles of p-nitrophenol per ml) was normalized to the protein amount (nmoles of p-nitrophenol per μg).
as §4

| Molecule | bone-formation in rat model (rat model) | potentiation of BMP-2 induced transdifferentiation of C2C12 myoblasts into the osteoblastic phenotype (C2C12 myoblasts) | effective dose of compound among multiple assays (C2C12 myoblasts; C2C12 cells, BMP-2 induced markers) | effect on BMP-2-induced response (C2C12 myoblasts; dose of 0.1 μg/ml) | concentration causing lifting of some cells from the plates (C2C12 cells) | EC50 ([1]; Mus musculus, C2C12, calculated from the Hill plot, read-out: EC50, potentiation of BMP-2 luciferase reporter activity) | optimum enhancement of BMP-2 induced luciferase activity ([1]; compound 1.0 μg/ml, compared to BMP-2 alone, P<0.05) | maximal increase in BMP-induced alkaline phosphatase mRNA level ([2]; BMP-2 20 ng/ml, compared to BMP-2 alone, P<0.05) | EC50 ([2]; Mus musculus, C2C12, BMP-2 20 ng/ml, estimated, read-out: EC50, expression of alkaline phosphatase mRNA) | EC50 (osteocalcin mRNA; Mus musculus, C2C12, BMP-2 20 ng/ml, estimated, read-out: EC50, expression of osteocalcin mRNA) | effect of compound alone on osteocalcin mRNA (osteocalcin mRNA; absence of BMP-2) | maximal increase in BMP-induced osteocalcin mRNA level (osteocalcin mRNA; compound 1.0 μg/ml, BMP-2 20 ng/ml, compared to BMP-2 alone, P<0.05) | EC50 ([3]; Mus musculus, C2C12, BMP-2 50 ng/ml, estimated) | maximal increase in BMP-2 induced ALP activity ([3]; compound 1.0 μg/ml, BMP-2 50 ng/ml, compared to BMP-2 alone, P<0.001) | efficacy relative to other derivatives in cell-based alkaline phosphatase assay ([3]; screening, FIG. 9) | increase in alkaline phosphatase mRNA by BMP-2 alone ([2]; absence of DMSO) | increase in alkaline phosphatase mRNA by BMP-2 alone ([2]; presence of DMSO (0.01%)) | increase in osteocalcin mRNA by BMP-2 alone (osteocalcin mRNA; absence of DMSO) | increase in osteocalcin mRNA by BMP-2 alone (osteocalcin mRNA; presence of DMSO (0.01%)) |
| --- | --- | --- | --- | --- | --- | --- | --- | --- | --- | --- | --- | --- | --- | --- | --- | --- | --- | --- | --- |
| C=Cc1nc(N)nc(N)n1 [Compound 12, 2,4-diamino-6-vinyl-1,3,5-triazine] | capable of inducing bone-formation | potentiate the effects of BMP-2 | 0.275 to 1.0 µg/mL | elevated the BMP-2-induced response significantly | higher than 1.5 ug/ml | 2.6 µM | 3.8 fold | 3.5 fold | 1.5 to 5.3 µM | 1.5 to 5.3 µM | no significant effect | 4.4 fold | 3.7 µM | 4.8 fold |  |  |  |  |  |
| CC1(C)N=C(N)N=C(N)N1c1ccc(Cl)cc1 [Compound 12X, 1-(4-chlorophenyl)-4,6-diamino-1,2-dihydro-2,2-dimethyl-1,3,5-triazine] |  | potentiate the effects of BMP-2 |  |  |  |  |  |  |  |  |  |  |  |  | more efficacious |  |  |  |  |
| B1 |  |  |  |  |  |  |  |  |  |  |  |  |  |  |  | 43 fold | 51 fold | 9 fold | 7 fold |
